According to patent US20050238777A1, “Condensed palatinose and method for producing the same” (priority 2002, published 2005):

What was measured:
[1] = target: T1, saccharase/isomaltase enzyme complex (SI complex) (Sus scrofa, UniProt P56729); assay: Stability with respect to intestinal α-glucosidases: saccharase/isomaltase; type: in vitro ADME, pig; settings: 1% solution, pH 7.0, 0.7 U enzyme complex, 37° C., incubation time 120 min
T1 construct: are isolated from a pig intestine by the method of H. Heymann; from tissue; host or cells: pig intestine (mucosa of the small intestine)
Description: (§1) The enzyme complexes saccharase/isomaltase and glucoamylase/maltase that are present on the mucosa in the small intestine in vivo serve to break down disaccharides like maltose and sucrose that reach the small intestine and also to break down maltooligosaccharides to monosaccharides to some degree, and as such these components are absorbed into the blood circulation via the intestinal wall. The enzyme complexes saccharase/isomaltase (SI complex) and glucoamylase/maltase (GM complex) are isolated from a pig intestine by the method of H. […] (solution 2 to solution 6), mixed and incubated at 37° C. The reaction is stopped after 2 h by heating to 95° C. for 15 min. The monosaccharides that have formed and the undegraded saccharides in the relative batches are quantitatively determined by HPAEC.

[2] = system: glucoamylase/maltase enzyme complex (GM complex); assay: Stability with respect to intestinal α-glucosidases: glucoamylase/maltase; type: in vitro ADME, pig; settings: 1% solution, pH 7.0, 0.7 U enzyme complex, 37° C., incubation time 120 min
Description: as §1

[3] = Stability in stomach: hydrolysis rate at pH 2.0, 37° C.; type: physicochemical; settings: 1% solution, 10 mM hydrochloric acid (pH 2.0)
Procedure: The stability of a substance in the gastric passage can be simulated by determining the hydrolysis rate at pH 2.0. Sucrose and 1-kestose are used as controls. […] Samples are taken from the reaction batch after […], 120 and 180 min and are analyzed by basic anion exchange chromatography, HPAEC.

T1 sequence (P56729 with tags, fused parts or gaps): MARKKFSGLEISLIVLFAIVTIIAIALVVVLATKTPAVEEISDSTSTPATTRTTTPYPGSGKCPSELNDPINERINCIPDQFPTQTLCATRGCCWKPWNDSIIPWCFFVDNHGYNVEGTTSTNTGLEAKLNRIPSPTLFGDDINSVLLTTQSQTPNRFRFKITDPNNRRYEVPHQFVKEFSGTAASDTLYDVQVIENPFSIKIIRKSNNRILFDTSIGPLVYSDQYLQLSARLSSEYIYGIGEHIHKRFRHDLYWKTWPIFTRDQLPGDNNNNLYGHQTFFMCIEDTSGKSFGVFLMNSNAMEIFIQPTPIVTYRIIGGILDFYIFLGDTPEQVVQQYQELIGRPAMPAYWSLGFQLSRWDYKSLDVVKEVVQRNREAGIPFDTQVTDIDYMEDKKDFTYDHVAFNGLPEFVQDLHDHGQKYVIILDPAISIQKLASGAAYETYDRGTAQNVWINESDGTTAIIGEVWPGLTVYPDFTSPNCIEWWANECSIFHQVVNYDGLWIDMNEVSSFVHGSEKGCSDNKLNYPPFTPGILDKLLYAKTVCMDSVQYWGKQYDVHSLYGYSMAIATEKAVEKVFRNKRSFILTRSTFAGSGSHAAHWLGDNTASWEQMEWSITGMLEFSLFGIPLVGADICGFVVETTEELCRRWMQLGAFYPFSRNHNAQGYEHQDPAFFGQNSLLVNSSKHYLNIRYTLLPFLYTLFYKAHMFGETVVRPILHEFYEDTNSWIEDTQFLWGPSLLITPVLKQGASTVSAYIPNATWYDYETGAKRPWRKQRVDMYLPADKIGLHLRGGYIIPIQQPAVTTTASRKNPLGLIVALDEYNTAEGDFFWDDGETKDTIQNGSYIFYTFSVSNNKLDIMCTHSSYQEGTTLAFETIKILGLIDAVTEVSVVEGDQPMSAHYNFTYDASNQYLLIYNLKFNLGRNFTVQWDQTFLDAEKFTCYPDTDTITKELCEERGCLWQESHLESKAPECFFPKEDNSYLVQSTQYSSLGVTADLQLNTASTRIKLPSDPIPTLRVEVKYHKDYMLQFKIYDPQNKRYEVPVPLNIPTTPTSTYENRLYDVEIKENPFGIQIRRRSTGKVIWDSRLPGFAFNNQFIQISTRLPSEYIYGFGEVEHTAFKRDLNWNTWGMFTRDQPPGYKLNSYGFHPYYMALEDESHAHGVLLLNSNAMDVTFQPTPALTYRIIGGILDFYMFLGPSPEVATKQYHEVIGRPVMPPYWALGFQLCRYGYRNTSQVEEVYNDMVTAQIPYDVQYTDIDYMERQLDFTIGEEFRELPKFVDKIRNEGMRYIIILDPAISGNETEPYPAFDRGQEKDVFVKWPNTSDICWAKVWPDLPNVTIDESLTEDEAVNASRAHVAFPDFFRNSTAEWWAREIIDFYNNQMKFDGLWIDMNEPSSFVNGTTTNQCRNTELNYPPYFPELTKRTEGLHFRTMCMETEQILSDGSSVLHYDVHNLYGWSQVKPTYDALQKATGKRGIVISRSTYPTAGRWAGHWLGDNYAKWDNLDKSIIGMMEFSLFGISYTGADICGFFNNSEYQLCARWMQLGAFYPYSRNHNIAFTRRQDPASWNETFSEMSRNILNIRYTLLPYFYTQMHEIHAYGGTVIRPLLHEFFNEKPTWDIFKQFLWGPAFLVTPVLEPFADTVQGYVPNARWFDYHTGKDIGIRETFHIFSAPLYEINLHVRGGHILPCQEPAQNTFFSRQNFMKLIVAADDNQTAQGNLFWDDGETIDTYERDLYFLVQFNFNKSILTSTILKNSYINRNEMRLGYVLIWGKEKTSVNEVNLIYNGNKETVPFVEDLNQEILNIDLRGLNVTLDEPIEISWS

SMILES: OC[C@H]1O[C@H](O[C@H]2[C@H](O)[C@@H](O)C(O)O[C@@H]2CO)[C@H](O)[C@@H](O)[C@@H]1O (mixture of isomers) [Maltose]
- Hydrolysis rate (%), incubation with Saccharase/Isomaltase [1]: 95%
- Hydrolysis rate (%), incubation with Glucoamylase/Maltase [2]: 96%

SMILES: OC[C@H]1O[C@@](CO)(OC[C@@]2(O[C@H]3O[C@H](CO)[C@@H](O)[C@H](O)[C@H]3O)O[C@H](CO)[C@@H](O)[C@@H]2O)[C@@H](O)[C@@H]1O [Example 1-Kestose, 1-Kestose]
- Hydrolysis rate (%) ([3]; incubation time 0 min): 0%
- Hydrolysis rate (%) ([3]; incubation time 60 min): 11%
- Hydrolysis rate (%) ([3]; incubation time 120 min): 25%
- Hydrolysis rate (%) ([3]; incubation time 180 min): 36%

SMILES: OC[C@H]1O[C@@](CO)(O[C@H]2O[C@H](CO)[C@@H](O)[C@H](O)[C@H]2O)[C@@H](O)[C@@H]1O [Sucrose]
- Hydrolysis rate (%) ([3]; incubation time 0 min): 0%
- Hydrolysis rate (%) ([3]; incubation time 60 min): 2%
- Hydrolysis rate (%) ([3]; incubation time 120 min): 5%
- Hydrolysis rate (%) ([3]; incubation time 180 min): 8%
- Hydrolysis rate (%), incubation with Saccharase/Isomaltase [1]: 98%
